Measured values as given in patent US10472341B2, “Bicyclic tetrahydrothiazepine derivatives useful for the treatment of neoplastic and/or infectious diseases” (APEIRON BIOLOGICS AG, priority 2015, dated 2019).
Where a name gives a salt, the structure may show the parent alone.

Legend:
human CD19+ B-cells = experiment: Cytokine production in IgM-stimulated isolated human CD19+ B-cells; format: cell-based; conditions: for EC50: Homo sapiens, B-cell
Description: Buffy coats were obtained from a local hospital, diluted 3 fold with PBS and layered onto an isotonic Ficoll separating solution d=1.077 g/mL in 50 mL centrifuge tubes. The tubes were centrifuged at 914 g for 25 min at room temperature with the brakes off. The PBMC layer was removed and washed twice with ice-cold PBS. Erythrocytes were lysed by addition of ddH2O and cells were resuspended in X-Vivo15 (Lonza). CD19+ B cells were isolated from PBMCs by negative selection with the aid MACs kits (Miltenyi), according to manufacturer's instructions. Purified fractions were >95% CD19-positive as judged by antibody staining and assessment by cytometry. B-cells were stimulated by adding varying concentrations of human IgM (1.25-20 μg/mL goat F (ab′) 2 anti human IgM-LE/AF, Biozol) in the presence of example 1. Cells were incubated for 18 h at 37° C., 5% CO2. Assay plates were centrifuged at 400 g for 5 min and supernatants harvested. Cytokine concentration in tissue culture supernatants were determined with MSD or HTRF kits (MSD and Cisbio), according to manufacturer's instructions.

[1] = system: TCR-mediated activation of CD4 and CD8 cells; experiment: Anti-CD3 PD model in mice: CD69 on splenic T-cells, plasma cytokines; format: in vivo, mouse; conditions: for CD4+ / CD8+ / CD69+ / CD69+ in CD4+ / CD69+ in CD8+: spleen flowcytometry; for CD4+ / CD8+ / CD69+ / CD69+ in CD4+ / CD69+ in CD8+ / IFN-γ / IL-2 / IL-6 / IL-10 / TNF-α: t=4.0 h; for IFN-γ / IL-2 / IL-6 / IL-10 / TNF-α: terminal plasma
Source text: Detection of antigen-specific T cell activation and proliferation in vivo is technically challenging since it requires the development and validation of research reagents to detect low-frequency T cells specific for a cognate antigen and also the establishment of specific measurement procedure for following cellular activation and/or proliferation in blood or secondary lymphoid organs. As a surrogate model for the determination of polyclonal T-cell activation in mice, a pharmacological system was designed and employed where adult […] mice were injected with anti-CD3 antibody to elicit TCR triggering and responses of a broad population of peripheral T-cells. To quantitatively determine T-cell responses, systemic IL-2, TNF-alpha and IFN-gamma levels were measured in blood serum as well as the expression of the early activation marker CD69 on splenic CD4 or CD8 T-cells […] after treatment.
It was investigated whether the oral application of compound affected the low-level of activation of a major subset of splenic T-cells by injection of anti-CD3 antibody as exemplified by increased serum levels of IL-2, IFN-gamma and TNF-alpha vis-à-vis untreated mice as well as an increase of CD69-expressing splenic T-cells from 2-10% to 15-20%.
[…] Compound example 1 was dosed twice orally as suspension (0.5% methylcellulose in water) at t=−1.0 h and t=1.0 h. • 3. Mice were terminated at t=4.0 h and their spleens and plasma harvested for flow cytometry and cytokine analysis respectively. • 4. Cytokine concentrations in terminal plasma samples were determined with MSD kits according to manufacturer's instructions.

CD8 T cells = experiment: CD69 expression on aCD3/aCD28 stimulated isolated human CD8 T cells (flow cytometry); format: cell-based; conditions: T-cell, 24 h after TCR stimulation, read-out: Activity Class CD69 (CD8)
Method in brief: (§1)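 Isolated CD4 and CD8 T cells plated at 80000 cells per well in Xvivo medium and stimulated with anti-CD3/28 mAbs in presence of compound. CD69 expression measured by flow cytometry 24 h after TCR stimulation.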

CD4 T cells = experiment: CD69 expression on aCD3/aCD28 stimulated isolated human CD4 T cells (flow cytometry); format: cell-based; conditions: 24 h after TCR stimulation, read-out: Activity Class CD69 (CD4)
Method in brief: as §1

With `N[C@H]1CS(=O)(=O)c2cc(F)c(C(=O)NC3CC3(F)F)cc2N(Cc2ccc(Cl)cc2)C1=O` (stereo partly drawn) [Example 1, (3R)-3-amino-5-[(4-chlorophenyl)methyl]-N-(2,2-difluorocyclopropyl)-8-fluoro-1,1,4-trioxo-2,3,4,5-tetrahydro-1λ^6,5-benzothiazepine-7-carboxamide hydrochloride] the EC50 (human CD19+ B-cells; IL-6, IgM 1.25 μg/mL) was 2.45 µM, the EC50 (human CD19+ B-cells; IL-6, IgM 5 μg/mL) was 4.68 µM and the EC50 (human CD19+ B-cells; IL-6, IgM 20 μg/mL) was 3.24 µM. It also gave an EC50 (human CD19+ B-cells; TNF-α, IgM 1.25 μg/mL) of 3.31 µM, an EC50 (human CD19+ B-cells; TNF-α, IgM 5 μg/mL) of 4.47 µM and an EC50 (human CD19+ B-cells; TNF-α, IgM 20 μg/mL) of 2.95 µM. The “Fold Diff Mean” value (human CD19+ B-cells; IL-6, IgM 1.25 μg/mL) was 1.61, the “Fold Diff Mean” value (human CD19+ B-cells; IL-6, IgM 5 μg/mL) was 1.92 and the “Fold Diff Mean” value (human CD19+ B-cells; IL-6, IgM 20 μg/mL) was 1.92. The “Fold Diff Mean” value (human CD19+ B-cells; TNF-α, IgM 1.25 μg/mL) was 1.64, the “Fold Diff Mean” value (human CD19+ B-cells; TNF-α, IgM 5 μg/mL) was 2.08 and the “Fold Diff Mean” value (human CD19+ B-cells; TNF-α, IgM 20 μg/mL) was 1.87. For the same molecule, the “TCR-mediated activation of CD4 and CD8 cells in vivo” value ([1]; mice, anti-CD3 i.p., compound oral, five hours) was “is able to substantially enhance TCR-mediated activation of CD4 and CD8 cells in vivo”, the “CD4+” value ([1]; 25 mg/kg dosed twice orally) was 22.95% and the “CD8+” value ([1]; 25 mg/kg dosed twice orally) was 16.33%. The “CD69+” value ([1]; 25 mg/kg dosed twice orally) was 12.65%, the “CD69+ in CD4+” value ([1]; 25 mg/kg dosed twice orally) was 26.75% and the “CD69+ in CD8+” value ([1]; 25 mg/kg dosed twice orally) was 32.40%. The “CD4+” value ([1]; 50 mg/kg dosed twice orally) was 22.86%, the “CD8+” value ([1]; 50 mg/kg dosed twice orally) was 16.42% and the “CD69+” value ([1]; 50 mg/kg dosed twice orally) was 17.06%. The “CD69+ in CD4+” value ([1]; 50 mg/kg dosed twice orally) was 32.14%, the “CD69+ in CD8+” value ([1]; 50 mg/kg dosed twice orally) was 46.44% and the “CD4+” value ([1]; 100 mg/kg dosed twice orally) was 23.18%. The “CD8+” value ([1]; 100 mg/kg dosed twice orally) was 16.70%, the “CD69+” value ([1]; 100 mg/kg dosed twice orally) was 28.58% and the “CD69+ in CD4+” value ([1]; 100 mg/kg dosed twice orally) was 47.50%. For the same molecule, the “CD69+ in CD8+” value ([1]; 100 mg/kg dosed twice orally) was 63.96%, the IFN-γ ([1]; 25 mg/kg dosed twice orally) was 5.26 pg/mL and the IL-2 ([1]; 25 mg/kg dosed twice orally) was 391.33 pg/mL. For the same molecule, the IL-6 ([1]; 25 mg/kg dosed twice orally) was 461.65 pg/mL, the IL-10 ([1]; 25 mg/kg dosed twice orally) was 39.88 pg/mL and the TNF-α ([1]; 25 mg/kg dosed twice orally) was 46.78 pg/mL. For the same molecule, the IFN-γ ([1]; 50 mg/kg dosed twice orally) was 12.99 pg/mL, the IL-2 ([1]; 50 mg/kg dosed twice orally) was 849.50 pg/mL and the IL-6 ([1]; 50 mg/kg dosed twice orally) was 1186.80 pg/mL. It also gave an IL-10 ([1]; 50 mg/kg dosed twice orally) of 50.88 pg/mL, a TNF-α ([1]; 50 mg/kg dosed twice orally) of 97.78 pg/mL and an IFN-γ ([1]; 100 mg/kg dosed twice orally) of 50.77 pg/mL. The IL-2 ([1]; 100 mg/kg dosed twice orally) was 1413.82 pg/mL, the IL-6 ([1]; 100 mg/kg dosed twice orally) was 2185.05 pg/mL and the IL-10 ([1]; 100 mg/kg dosed twice orally) was 68.38 pg/mL. The TNF-α ([1]; 100 mg/kg dosed twice orally) was 170.92 pg/mL.

Work on `Cl.N[C@H]1CS(=O)(=O)c2cc(F)c(C(=O)NCCCC(F)(F)F)cc2N(Cc2ccc(Cl)cc2)C1=O` [Example 70, (3R)-3-amino-5-[(4-chlorophenyl)methyl]-8-fluoro-1,1,4-trioxo-N-(4,4,4-trifluoro-butyl)-2,3,4,5-tetrahydro-1λ^6,5-benzothiazepine-7-carboxamide hydrochloride] yielded an EC50 (CD8 T cells) of under 1.58 µM and an EC50 (CD4 T cells) of under 1.58 µM.
